Measured values from the supplement of paper PMC11061612.

Key:
Test in all cases: combination Emax (second highest fraction inhibited in the dose matrix, 72 h); higher = more inhibition; extreme values may be limits of the assay
[1] = test system: OVISE (Ovarian Carcinoma)
Summary of the method: (§1)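 Cell lines in DMEM/F12 or RPMI with 10% FBS were plated in 1536-well plates, held 24 hours at 37°C, 5% CO2, then given two-drug dose matrices for 72 hours (DMSO typically 0.2%). Viability was read by CellTiter-Glo 2.0 luminescence and scaled as inhibition from 0 (vehicle wells) to 1 (blank wells). Combination Emax is the second-highest inhibition in the matrix; Bliss excess is observed combination effect minus expected EA + EB − EA·EB, EA and EB being single-agent effects.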

[2] = test system: MFE-319 (Endometrial Carcinoma)
Summary of the method: as §1

[3] = test system: NCI-H1573 (Lung Adenocarcinoma)
Summary of the method: as §1

[4] = test system: JHH-7 (Hepatocellular Carcinoma)
Summary of the method: as §1

[5] = test system: EW-13 (Ewing's Sarcoma)
Summary of the method: as §1

[6] = test system: GI-1 (Glioblastoma)
Summary of the method: as §1

[7] = test system: NCI-H513 (Other Solid Carcinomas)
Summary of the method: as §1

[8] = test system: ASH-3 (Thyroid Gland Carcinoma)
Summary of the method: as §1

[9] = test system: NCI-H2405 (Lung Adenocarcinoma)
Summary of the method: as §1

[10] = test system: IMR-5 (Neuroblastoma)
Summary of the method: as §1

[11] = test system: VMRC-LCD (Lung Adenocarcinoma)
Summary of the method: as §1

[12] = test system: LOU-NH91 (Squamous Cell Lung Carcinoma)
Summary of the method: as §1

[13] = test system: RPMI-7951 (Melanoma)
Summary of the method: as §1

[14] = test system: SNU-C1 (Colorectal Carcinoma)
Summary of the method: as §1

[15] = test system: GOTO (Neuroblastoma)
Summary of the method: as §1

[16] = test system: H-EMC-SS (Chondrosarcoma)
Summary of the method: as §1

[17] = test system: BT-20 (Breast Carcinoma)
Summary of the method: as §1

[18] = test system: DG-75 (Burkitt's Lymphoma)
Summary of the method: as §1

[19] = test system: SCC-9 (Oral Cavity Carcinoma)
Summary of the method: as §1

[20] = test system: PF-382 (T-Lymphoblastic Leukemia)
Summary of the method: as §1

In the case of `CCc1c2c(nc3ccc(O)cc13)-c1cc3c(c(=O)n1C2)COC(=O)[C@]3(O)CC` [SN-38] + O=C(c1cc(Cc2n[nH]c(=O)c3ccccc23)ccc1F)N1CCN(C(=O)C2CC2)CC1 [Olaparib] (first compound max 0.3 µM, 7x7, partner max 10 µM), the “combination Emax” value [1] is reported as 0.293, the “combination Emax” value [2] is reported as 0.301 and the “combination Emax” value [3] is reported as 0.187. The “combination Emax” value [4] was 0.289, the “combination Emax” value [5] was 0.811 and the “combination Emax” value [6] was 0.954. The “combination Emax” value [7] was 0.615, the “combination Emax” value [8] was 0.912 and the “combination Emax” value [9] was 0.472. For the same compound, the “combination Emax” value [10] was 1, the “combination Emax” value [11] was 0.121 and the “combination Emax” value [12] was 0.883. The “combination Emax” value [13] was 0.948, the “combination Emax” value [14] was 0.349 and the “combination Emax” value [15] was 0.879. The “combination Emax” value [16] was 0.676, the “combination Emax” value [17] was 0.855 and the “combination Emax” value [18] was 0.852. The “combination Emax” value [19] was 0.365 and the “combination Emax” value [20] was 1.
